pIC50: −log10 of the molar value.
Tests used:
Vero = assay: Cell proliferation assay MTT, Vero normal cells; conditions: read-out: Cytotoxicity IC50 Monkey normal Vero, 72 hr treated
Protocol: (§1) Cells were seeded in 96-well plates at a density of 5×10^3 cells per well and allowed to attach for 24 h before compound treatment. […] At end of the treatment period 72 h, 20 μl (5 mg/mL) 3-(4,5-dimethylthiazol-2-yl)-2,5-diphenyl-tetrazolium bromide (MTT) reagent was added each well. After 4 h incubation at 37° C., the supernatant was aspirated and the formazan crystals were dissolved in 100 μl of DMSO at 37° C. for 10 min with gentle agitation. The absorbance was measured at 570 nm using the Molecular Devices Microplate Reader. […] IC50 values were calculated from the relative viability values and concentrations by regression analysis.

HepG2 = assay: Cell proliferation assay MTT, HepG2; conditions: read-out: Cytotoxicity IC50 Liver HepG2, 72 hr treated
Protocol: as §1

FHsWe = assay: Cell proliferation assay MTT, FHsWe normal cells; conditions: read-out: Cytotoxicity IC50 Human normal FHsWe, 72 hr treated
Protocol: as §1

PANC1 = assay: Cell proliferation assay MTT, PANC1; conditions: read-out: Cytotoxicity IC50 Pancreas PANC1, 72 hr treated
Protocol: as §1

A549 = assay: Cell proliferation assay MTT, A549; conditions: read-out: Cytotoxicity IC50 Lung A549, 72 hr treated
Protocol: as §1

LNCap = assay: Cell proliferation assay MTT, LNCaP; conditions: read-out: Cytotoxicity IC50 Prostate LNCap, 72 hr treated
Protocol: as §1

U87MG = assay: Cell proliferation assay MTT, U87MG; conditions: read-out: Cytotoxicity IC50 Glioblastoma U87MG, 72 hr treated
Protocol: as §1

With `CN1CCc2c(c3ccccc3n2Cc2ccc(C(=O)NO)cc2)C1` [Tubastatin A, reference compound] the pIC50 (Vero) was 4.40, the pIC50 (HepG2) was < 5.00 and the pIC50 (FHsWe) was 4.33. The pIC50 (PANC1) was < 5.00, the pIC50 (A549) was < 5.00 and the pIC50 (LNCap) was < 5.00. For the same compound, the pIC50 (U87MG) was < 5.00.

Reference: US11535598B2, “Histone deacetylases (HDACs) inhibitors” (ANNJI PHARMACEUTICAL CO., LTD., priority 2017, dated 2022)
